# From patent US11071727B2, “Therapeutic targeting of proteolytic cleavage of the mixed lineage leukemia gene product (MLL1) by taspase1 using kinase inhibitors” (Northwestern University, priority 2018, dated 2021)
# Tests used:
# MLL1 = assay: Western blot of full-length MLL1 protein levels in cells treated with CKII inhibitors; type: cell-based, human; settings: 30 hours
# Procedure: (§1) FIG. 5. CKII inhibitors selectively increase full-length MLL1 protein levels by decreasing the phosphorylation of MLL1 near the cleavage sites. (A) Conservation of the sequences flanking MLL1-CS2, MLL2 and TFIIA cleavage sites and phosphorylated serine and threonine residues after the cleavage sites (highlighted in red). (B) and (C) 293T cells were transfected with vector control (VT), WT, AA or DD reporter constructs of MLL1-p75 or TFIIA. Western blot was performed with anti-Flag antibody for MLL1 (p75: FL, p47: cleaved) or TFIIA (p54: FL, p47: cleaved). (D) and (E) 293T cells were transfected with WT or AA reporter constructs of MLL1-p75 or TFIIA in the presence or absence of HA-taspase1. Western blot was performed with anti-Flag antibody for MLL1 or TFIIA, or anti-HA antibody for taspase1. (F) 293T cells were infected with shRNAs against CKIIα or CKIIα′. Western blot was performed with anti-MLL1C antibody for MLL1 full-length protein levels, and CKIIα or CKIIα′ for knockdown efficiency. (G) 293T cells were treated with DMSO or 10 μM CX-4945 for 30 hours. Cells were harvested and lysed for Western blot against MLL1, MLL2 or TFIIA using β-tubulin as the loading control. (H) and (I) 293T taspase1 KO cells were pre-treated with CX-4945 (3 μM) or TTP22 (10 μM) for 30 hours. Whole cell lysates from the two conditions were incubated with increasing concentrations of his-taspase1 and subject to in vitro taspase1 assay.
# FIG. 13. CKII inhibitors increase full-length MLL1 protein levels. (A) Prediction of kinases that phosphorylate MLL1 near the taspase1 cleavage site. (B) Structure of the CKII inhibitors CX-4945, TTP22, DMAT and TTB. (C) Comparison of the IC50 and molecular weight of the four CKII inhibitors. […] Quantification of the band intensities was performed by ImageJ software. (E) and (F) in vitro taspase1 cleavage assay. Taspase1 KO cell lysates were incubated with recombinant his-tagged taspase1 (0, 1, 10, 100 or 1000 ng) and subject to in vitro taspase1 cleavage assay. Cleavage efficiency was shown as the blotting for MLL1 and TFIIA using Hsp90 as the loading control.
# Cell culture. […]
# [1] = test system: MLL1 cleavage by taspase1; assay: in vitro taspase1 cleavage assay on lysates of pretreated taspase1 KO cells; type: biochemical, human; settings: 293T taspase1 KO cells pretreated 30 hours with CX-4945 (3 μM) or TTP22 (10 μM), compared with DMSO control
# Procedure: as §1, with “(H) and (I) 293T taspase1 KO cells were pre-treated with CX-4945 (3 μM) or TTP22 (10 μM) for 30 hours. Whole cell lysates from the two conditions were incubated with increasing concentrations of his-taspase1 and subject to in vitro taspase1 assay.” left out
# in vitro taspase1 cleavage assay. […] Cleavage efficiency was detected by western blot against MLL1C and TFIIA using Hsp90 as the loading control.
smiles,measurement,setting,value
"O=C(O)c1ccc2c(c1)nc(Nc1cccc(Cl)c1)c1ccncc12 [CX-4945, 5-(3-chlorophenylamino)benzo[c][2,6]naphthyridine-8-carboxylic acid]",conversion from cleaved MLL1 to full-length MLL1,"MLL1; 293T cells, 10 μM",increased the conversion from cleaved MLL1 to full-length MLL1
same,MLL1 full-length protein levels,"MLL1; 293T, MCF7 and HCT116 cells, 0-20 μM, Western blot with MLL1C antibody",dose-dependent increase of MLL1 full-length protein levels
same,cleavage efficiency by recombinant taspase1 protein,[1],cleavage efficiency was significantly diminished
